Measured values published in PMC11174122 (Molecules, 2024).

Experiments:
[1] = test system: Bel-7402; assay: MTT cytotoxic activity assay, Bel-7402; format: cell-based; settings: Homo sapiens, 48 h
Description: (§1) MCF-7, Hela, and HUCEC were cultured in DMEM (Beijing Solarbio) containing 10% FBS, 100 U/mL penicillin, and […] at 37 °C and 5% CO2. Bel-7402, A549, PC-3M were cultured in RPMI-1640 (Beijing Solarbio) media supplemented with 10% FBS (Wuhan Punuosai Life Science and Technology Co., Ltd., Wuhan, China), 100 U/mL penicillin, and […] at 37 °C and 5% CO2. MTT (Beijing Solarbio) was prepared with PBS at a concentration of 5 mg/mL. All tested drugs were prepared in a solution with a concentration of 20 mM, with dimethyl sulfoxide as the solvent.
(§2) The cells were inoculated into 96-well plates at a density of 5 × 10^3 cells/well. When the cell fusion reached 70–80%, the drug was treated for 48 h. Subsequently, 20 μL MTT was added to each well and incubated at 37 °C with 5% CO2 for 4 h. After that, the medium was discarded and 150 μL DMSO was added to each well. The absorbance was measured at 490 nm with an enzymoleter.

[2] = test system: A549; assay: MTT cytotoxic activity assay, A549; format: cell-based; settings: Homo sapiens, 48 h
Description: as §1, §2

[3] = test system: Hela; assay: MTT cytotoxic activity assay, Hela; format: cell-based, human; settings: Homo sapiens, HeLa; MTT, 48 h
Description: as §1, §2

[4] = test system: MCF-7; assay: MTT cytotoxic activity assay, MCF-7; format: cell-based; settings: Homo sapiens, MCF7, 48 h
Description: as §1, §2

[5] = test system: PC-3M; assay: MTT cytotoxic activity assay, PC-3M; format: cell-based; settings: Homo sapiens, read-out: IC50 PC-3M, 48 h
Description: as §1, §2

Row | Structure (SMILES) | IC50 [1] | IC50 [2] | IC50 [3] | IC50 [4] | IC50 [5]
1 | CC(C)C[C@H](NC(=O)OC(C)(C)C)C(=O)Oc1ccc(/C=C/C(=O)c2ccc(OC(=O)[C@H](CC(C)C)NC(=O)OC(C)(C)C)cc2O)cc1 [Compound 1, (E)-4-(3-(4-(((tert-butoxycarbonyl)leucyl)oxy)-2-hydroxyphenyl)-3-oxoprop-1-en-1-yl)phenyl (tert-butoxycarbonyl)leucinate] | > 200 µM | > 200 µM | > 200 µM | > 200 µM | > 200 µM
2 | CCC(C)CC(NC(=O)OC(C)(C)C)C(=O)Oc1ccc(/C=C/C(=O)c2ccc(OC(=O)C(CC(C)CC)NC(=O)OC(C)(C)C)cc2O)cc1 (stereo not drawn) [Compound 2, (E)-4-(3-(4-((2-((tert-butoxycarbonyl)amino)-4-methylhexanoyl)oxy)-2-hydroxyphenyl)-3-oxoprop-1-en-1-yl)phenyl 2-((tert-butoxycarbonyl)amino)-4-methylhexanoate] | > 200 µM | > 200 µM | > 200 µM | > 200 µM | > 200 µM
3 | CC(C)[C@H](NC(=O)OC(C)(C)C)C(=O)Oc1ccc(/C=C/C(=O)c2ccc(OC(=O)[C@@H](NC(=O)OC(C)(C)C)C(C)C)cc2O)cc1 [Compound 3, (E)-4-(3-(4-(((tert-butoxycarbonyl)valyl)oxy)-2-hydroxyphenyl)-3-oxoprop-1-en-1-yl)phenyl (tert-butoxycarbonyl)valinate] | > 200 µM | > 200 µM | > 200 µM | > 200 µM | > 200 µM
4 | CC(C)(C)OC(=O)N1CCCC1C(=O)Oc1ccc(/C=C/C(=O)c2ccc(OC(=O)[C@@H]3CCCN3C(=O)OC(C)(C)C)cc2O)cc1 (stereo partly drawn) [Compound 4, (E)-2-(4-(3-(4-(((tert-butoxycarbonyl)prolyl)oxy)-2-hydroxyphenyl)-3-oxoprop-1-en-1-yl)phenyl) 1-(tert-butyl) pyrrolidine-1,2-dicarboxylate] | > 200 µM | > 200 µM | > 200 µM | > 200 µM | > 200 µM
5 | CN(CC(=O)Oc1ccc(/C=C/C(=O)c2ccc(OC(=O)CN(C)C(=O)OC(C)(C)C)cc2O)cc1)C(=O)OC(C)(C)C [Compound 5, (E)-4-(3-(4-((N-(tert-butoxycarbonyl)-N-methylglycyl)oxy)-2-hydroxyphenyl)-3-oxoprop-1-en-1-yl)phenyl N-(tert-butoxycarbonyl)-N-methylglycinate] | > 200 µM | > 200 µM | > 200 µM | > 200 µM | > 200 µM
6 | CC(C)(C)OC(=O)NC(C(=O)Oc1ccc(/C=C/C(=O)c2ccc(OC(=O)C(NC(=O)OC(C)(C)C)C3CCCC3)cc2O)cc1)C1CCCC1 [Compound 6, 4-((E)-3-(4-((S)-2-((tert-butoxycarbonyl)amino)-2-cyclopentylacetoxy)-2-hydroxyphenyl)-3-oxoprop-1-en-1-yl)phenyl(R)-2-((tert-butoxycarbonyl)amino)-2-cyclopentylacetate] | > 200 µM | > 200 µM | > 200 µM | > 200 µM | > 200 µM
7 | CC(C)(C)OC(=O)NC(C(=O)Oc1ccc(/C=C/C(=O)c2ccc(O)cc2O)cc1)C1CCCC1 [Compound 7, (E)-4-(3-(2,4-dihydroxyphenyl)-3-oxoprop-1-en-1-yl)phenyl(R)-2-((tert-butoxycarbonyl)amino)-2-cyclopentylacetate] | 27.9 µM | 27.4 µM | 28.7 µM | 29.8 µM | 33.2 µM
8 | CC(C)(C)OC(=O)NC(C(=O)Oc1ccc(/C=C/C(=O)c2ccc(OC(=O)C(NC(=O)OC(C)(C)C)C3CCCCC3)cc2O)cc1)C1CCCCC1 [Compound 8, 4-((E)-3-(4-((R)-2-((tert-butoxycarbonyl)amino)-2-cyclohexylacetoxy)-2-hydroxyphenyl)-3-oxoprop-1-en-1-yl)phenyl(S)-2-((tert-butoxycarbonyl)amino)-2-cyclohexylacetate] | > 200 µM | > 200 µM | > 200 µM | > 200 µM | > 200 µM
9 | C[C@H](NC(=O)OC(C)(C)C)C(=O)Oc1ccc(C(=O)/C=C/c2ccc(OC(=O)[C@@H](C)NC(=O)OC(C)(C)C)cc2)c(O)c1 [Compound 10, 4-((E)-3-(4-(((tert-butoxycarbonyl)-D-alanyl)oxy)phenyl)acryloyl)-3-hydroxyphenyl (tert-butoxycarbonyl)-L-alaninate] | > 200 µM | > 200 µM | > 200 µM | > 200 µM | > 200 µM
10 | CC(NC(=O)OC(C)(C)C)C(=O)Oc1ccc(C=CC(=O)c2ccc(O)cc2O)cc1 [Compound 11, (E)-4-(3-(2,4-dihydroxyphenyl)-3-oxoprop-1-en-1-yl)phenyl(tert-butoxycarbonyl)-D-alaninate] | 87.6 µM | 100 µM | 99.9 µM | 160 µM | 122 µM
11 | CC(C)(C)OC(=O)NC(CCc1ccccc1)C(=O)Oc1ccc(C(=O)/C=C/c2ccc(OC(=O)[C@H](CCc3ccccc3)NC(=O)OC(C)(C)C)cc2)c(O)c1 (stereo partly drawn) [Compound 12, 4-((E)-3-(4-((2-((tert-butoxycarbonyl)amino)-4-phenylbutanoyl)oxy)-2-hydroxyphenyl)-3-oxoprop-1-en-1-yl)phenyl(2S)-2-((tert-butoxycarbonyl)amino)-4-phenylbutanoate] | > 200 µM | > 200 µM | > 200 µM | > 200 µM | > 200 µM
12 | CC(C)(C)OC(=O)N[C@@H](CCc1ccccc1)C(=O)Oc1ccc(/C=C/C(=O)c2ccc(O)cc2O)cc1 [Compound 13, (E)-4-(3-(2,4-dihydroxyphenyl)-3-oxoprop-1-en-1-yl)phenyl(S)-2-((tert-butoxycarbonyl)amino)-4-phenylbutanoate] | 35.3 µM | 48.9 µM | 29.2 µM | 60.5 µM | 37.4 µM
13 | CC(C)(C)OC(=O)N[C@@H](Cc1ccccc1Br)C(=O)Oc1ccc(C(=O)/C=C/c2ccc(OC(=O)[C@@H](Cc3ccccc3Br)NC(=O)OC(C)(C)C)cc2)c(O)c1 [Compound 14, 4-((E)-3-(4-(((S)-3-(2-bromophenyl)-2-((tert-butoxycarbonyl)amino)propanoyl)oxy)-2-hydroxyphenyl)-3-oxoprop-1-en-1-yl)phenyl(R)-3-(2-bromophenyl)-2-((tert-butoxycarbonyl)amino)propanoate] | > 200 µM | > 200 µM | > 200 µM | > 200 µM | > 200 µM
14 | CC(C)(C)OC(=O)N[C@H](Cc1ccccc1Br)C(=O)Oc1ccc(/C=C/C(=O)c2ccc(O)cc2O)cc1 [Compound 15, (E)-4-(3-(2,4-dihydroxyphenyl)-3-oxoprop-1-en-1-yl)phenyl(R)-3-(2-bromophenyl)-2-((tert-butoxycarbonyl)amino)propanoate] | 38.4 µM | 42.6 µM | 27.4 µM | 50.9 µM | 30.2 µM
15 | CC(C)(C)OC(=O)N[C@@H](Cc1ccccc1Cl)C(=O)Oc1ccc(C(=O)/C=C/c2ccc(OC(=O)[C@@H](Cc3ccccc3Cl)NC(=O)OC(C)(C)C)cc2)c(O)c1 [Compound 16, 4-((E)-3-(4-(((S)-2-((tert-butoxycarbonyl)amino)-3-(2-chlorophenyl)propanoyl)oxy)-2-hydroxyphenyl)-3-oxoprop-1-en-1-yl)phenyl(R)-2-((tert-butoxycarbonyl)amino)-3-(2-chlorophenyl)propanoate] | > 200 µM | > 200 µM | > 200 µM | > 200 µM | > 200 µM
